# Source: patent publication US20070134261A1, “Effectors of innate immunity” (priority 2001, published 2007)
# Read-outs that look alike come from different tables or passages of the source. Residues, ends and D or L forms follow the SMILES beside them. No end group written: not given here.
# How the values were obtained:
# [1] = tested on: human bronchial epithelial cells (HBE); assay: LDH release assay (Cytotoxicity Detection Kit); format: cell-based; conditions: 100 μg/ml, 24 hours; no peptide control 1.0 ± 0.05
# Description: (§1) The potential toxicity of the peptides was measured in two ways. First, the Cytotoxicity Detection Kit (Roche) (Lactate dehydrogenase-LDH) Assay was used. It is a colorimetric assay for the quantification of cell death and cell lysis, based on the measurement of LDH activity released from the cytosol of damaged cells into the supernatant. LDH is a stable cytoplasmic enzyme present in all cells and it is released into the cell culture supernatant upon damage of the plasma membrane. An increase in the amount of dead or plasma membrane-damaged cells results in an increase of the LDH enzyme activity in the culture supernatant as measured with an ELISA plate reader, OD490 nm (the amount of color formed in the assay is proportional to the number of lysed cells). In this assay, human bronchial epithelial cells (I6HBEo14, HBE) cells were incubated with 100 μg of peptide for 24 hours, the supernatant removed and tested for LDH. The other assay used to measure toxicity of the cationic peptides was the WST-1 assay (Roche). This assay is a colorimetric assay for the quantification of cell proliferation and cell viability, based on the cleavage of the tetrazolium salt WST-1 by mitochondrial dehydrogenases in viable cells (a non-radioactive alternative to the [^3H]-thymidine incorporation assay). In this assay, HBE cells were incubated with 100 μg of peptide for 24 hours, and then 10 μl/well Cell Proliferation Reagent WST-1 was added. The cells are incubated with the reagent and the plate is then measured with an ELISA plate reader, OD490 nm.
# [2] = tested on: RAW 264.7 mouse macrophage cells; format: cell-based; conditions: Peptide 20 μg/ml; 100 ng/ml E. coli 0111:B4 LPS, 6 h
# [3] = format: cell-based
# [4] = tested on: A549 human epithelial cells; assay: Induction of chemokines (IL-8, MCP-1) in A549 cells (ELISA); format: cell-based; conditions: peptide 10 ug/ml, 24 hr
# Description: The murine macrophage cell line RAW 264.7, THP-1 cells (human monocytes), a human epithelial cell line (A549), human bronchial epithelial cells (16HBEo14), and whole human blood were used. HBE cells were grown in MEM with Earle's. THP-1 cells were grown and maintained in RPMI 1640 medium. The RAW and A549 cell lines were maintained in DMEM supplemented with 10% fetal calf serum. […] DMEM was aspirated from cells grown overnight and replaced with fresh medium. After incubation of the cells with peptide, the release of chemokines into the culture supernatant was determined by ELISA (R&D Systems, Minneapolis, Minn.).
# [5] = tested on: HBE cells; assay: WST-1 assay (cell viability); format: cell-based, human
# Description: as §1
# [6] = tested on: BALB/c mice; assay: Lethal endotoxemia in galactosamine-sensitized BALB/c mice; format: in vivo; conditions: 2 μg LPS; peptide 200 μg/mouse = 8 mg/kg IP 15 min after LPS; 48 hours; no peptide 10
# [7] = tested on: A549 epithelial cells; assay: Human Operon arrays (PRHU04-S1) of A549 cells treated with peptide alone (Tables 31-37, 53); conditions: 50 μg/ml, 4 h
# [8] = tested on: S. aureus; assay: Murine S. aureus infection model (CD-1 mice); format: in vivo, mouse; conditions: peptide 200 μg IP
# Description: (§2) BALB/c mice were given 1×10^5 Salmonella and cationic peptide (200 μg) by intraperitoneal injection. The mice were monitored for 24 hours at which point they were euthanized, the spleen removed, homogenized and resuspended in PBS and plated on Luria Broth agar plates with Kanamycin (50 μg/ml). The plates were incubated overnight at 37° C. and counted for viable bacteria (Table 49 and 50). CD-1 mice were given 1×10^8 S. aureus in 5% porcine mucin and cationic peptide (200 μg) by intraperitoneal injection (Table 51). The mice were monitored for 3 days at which point they were euthanized, blood removed and plated for viable counts. CD-1 male mice were given 5.8×10^6 CFU EHEC bacteria and cationic peptide (200 μg) by intraperitoneal (IP) injection and monitored for 3 days (Table 52). […] Many of the cationic peptides were shown not to be directly antimicrobial as tested by the Minimum Inhibitory Concentration (MIC) assay (Table 54).
# [9] = tested on: Salmonella; assay: Salmonella infection in BALB/c mice (viable bacteria in spleen); format: in vivo, mouse; conditions: mouse, in vivo, ip
# Description: as §2
# [10] = tested on: human PBMC; assay: TLR agonist / cytokine induced cytokine secretion by PBMC (ELISA, multiplex bead immunoassay); format: cell-based
# Description: All assays were performed in triplicate.
# [11] = Staphylococcus aureus, overnight, 96-well plate
compound,measurement,setting,value
CC[C@H](C)[C@H](NC(=O)[C@@H](NC(=O)[C@H](CCCNC(=N)N)NC(=O)[C@@H](NC(=O)[C@@H]1CCCN1C(=O)[C@H](CO)NC(=O)[C@H](CCCCN)NC(=O)[C@H](Cc1ccccc1)NC(=O)[C@@H](NC(=O)[C@H](CCCNC(=N)N)NC(=O)[C@H](CC(C)C)NC(=O)[C@H](Cc1ccccc1)NC(=O)[C@H](CO)NC(=O)[C@H](CCCCN)NC(=O)[C@H](Cc1c[nH]c2ccccc12)NC(=O)[C@@H](N)CCCCN)[C@@H](C)O)C(C)C)[C@@H](C)O)C(=O)N[C@@H](Cc1ccccc1)C(=O)N[C@@H](Cc1c[nH]cn1)C(=O)N[C@H](C(=O)N[C@@H](C)C(=O)N[C@@H](CC(C)C)C(=O)N[C@@H](CCCCN)C(=O)N1CCC[C@H]1C(=O)N[C@H](C(=O)N[C@@H](CO)C(=O)N[C@@H](CO)C(=O)O)[C@@H](C)CC)[C@@H](C)O [SEQ ID NO: 47],LDH Release (OD490 nm),[1],1.05 ± 0.05 OD490 nm
same,Inhibition of TNF-α,[2],36.9 ± 2.2%
same,"MIC, S. aureus",[3]; [11],>
same,IL-8,[4],0.383 ng/mL
same,OD490 nm (WST-1 cell viability),[5],1.14 ± 0.23 OD490 nm
CC[C@H](C)[C@H](NC(=O)CNC(=O)[C@H](CCCNC(=N)N)NC(=O)[C@H](CCSC)NC(=O)[C@H](C)NC(=O)[C@@H](NC(=O)[C@H](CCCNC(=N)N)NC(=O)[C@H](CCCCN)NC(=O)[C@@H](NC(=O)[C@H](CS)NC(=O)[C@@H](NC(=O)[C@@H](N)CCCNC(=N)N)[C@@H](C)O)C(C)C)C(C)C)C(=O)N[C@H](C(=O)N[C@@H](CCCNC(=N)N)C(=O)N[C@@H](CCCCN)C(=O)N[C@@H](CCCNC(=N)N)C(=O)N[C@@H](CS)C(=O)N[C@@H](CCCNC(=N)N)C(=O)O)[C@@H](C)CC [SEQ ID NO: 33] (H-RTCVKRVAMRGIIRKRCR-OH; N-terminus and C-terminus assumed),LDH Release (OD490 nm),[1],1.03 ± 0.05 OD490 nm
same,Inhibition of TNF-α,[2],62.1 ± 0.08%
same,"MIC, C. rhod.",[3]; 24 h,64 µg/mL
same,"MIC, E. coli",[3]; 24 h,16 µg/mL
same,"MIC, EHEC",[3]; 24 h,8 µg/mL
same,"MIC, S. aureus",[3]; 24 h,32 µg/mL
same,"MIC, S. typhim.",[3]; 24 h,16 µg/mL
same,IL-8,[4],0.328 ng/mL
same,OD490 nm (WST-1 cell viability),[5],1.75 ± 0.21 OD490 nm
KWKKWAHSPRKVLTRIFHTALKPISS [SEQ ID NO: 50],"MIC, C. rhod.",[3]; 24 h,16 µg/mL
same,"MIC, E. coli",[3]; 24 h,8 µg/mL
same,"MIC, EHEC",[3]; 24 h,8 µg/mL
same,"MIC, P. aerug.",[3]; 24 h,16 µg/mL
same,"MIC, S. typhim.",[3]; 24 h,16 µg/mL
same,"MIC, S. aureus",[3]; [11],>
same,IL-8,[4],0.141 ng/mL
SLPIKHDRLPATS [SEQ ID NO: 15],Survival,[6],0%
same,Inhibition of TNF-α,[2],69.4 ± 0.84%
same,"MIC, C. rhod.",[3]; 24 h,128 µg/mL
same,"MIC, E. coli",[3]; 24 h,128 µg/mL
same,"MIC, EHEC",[3]; 24 h,64 µg/mL
same,"MIC, S. aureus",[3]; [11],>
CSCC[C@H](NC(=O)CNC(=O)[C@H](CCCNC(=N)N)NC(=O)[C@H](CCSC)NC(=O)[C@H](C)NC(=O)[C@@H](NC(=O)[C@H](CCCCN)NC(=O)[C@@H](NC(=O)[C@H](CS)NC(=O)[C@H](CCC(N)=O)NC(=O)[C@@H](N)CCCCN)C(C)C)C(C)C)C(=O)N[C@@H](C)C(=O)N[C@@H](CC(C)C)C(=O)N[C@@H](CCCNC(=N)N)C(=O)N[C@@H](CCCNC(=N)N)C(=O)N[C@@H](CS)C(=O)N[C@@H](CCCCN)C(=O)O [SEQ ID NO: 30] (H-KQCVKVAMRGMALRRCK-OH; N-terminus and C-terminus assumed),Fold Up regulation of Gene Expression relative to Untreated Cells: Cell cycle gene (S70622),[7],8.5 fold
same,Fold Up regulation of Gene Expression relative to Untreated Cells: Dehydrogenase (D17793),[7],2.3 fold
same,Fold Up regulation of Gene Expression relative to Untreated Cells: Forkhead protein (AF042832),[7],14.1 fold
same,Fold Up regulation of Gene Expression relative to Untreated Cells: Homeobox protein (AC004774),[7],3.2 fold
same,Fold Up regulation of Gene Expression relative to Untreated Cells: Hypothetical Protein (AK002104),[7],4.7 fold
same,Fold Up regulation of Gene Expression relative to Untreated Cells: Hypothetical Protein (AL022393),[7],4.4 fold
same,Fold Up regulation of Gene Expression relative to Untreated Cells: IL-10 Receptor (U00672),[7],2.6 fold
same,Fold Up regulation of Gene Expression relative to Untreated Cells: KIAA0284 Protein (AB006622),[7],3.4 fold
same,Fold Up regulation of Gene Expression relative to Untreated Cells: Peroxisome factor (AB013818),[7],3.4 fold
same,Fold Up regulation of Gene Expression relative to Untreated Cells: Polypeptide (AF105424),[7],2.5 fold
same,Fold Up regulation of Gene Expression relative to Untreated Cells: Protein (AL050261),[7],3.3 fold
same,Fold Up regulation of Gene Expression relative to Untreated Cells: Receptor (AF112461),[7],2.4 fold
same,Fold Up regulation of Gene Expression relative to Untreated Cells: SPR1 protein (AB031480),[7],3.0 fold
same,Fold Up regulation of Gene Expression relative to Untreated Cells: Transferase (AF038664),[7],12.3 fold
same,Fold Up regulation of Gene Expression relative to Untreated Cells: Transferase (M63509),[7],2.7 fold
same,Fold Up regulation of Gene Expression relative to Untreated Cells: Unknown (AL096803),[7],4.8 fold
same,Fold Up regulation of Gene Expression relative to Untreated Cells: Zinc finger protein (AF061261),[7],2.6 fold
same,CFU/ml (blood),"[8]; 3 days, No Peptide 7.61 ± 1.7 × 10^3",1.29 ± 0.04 × 10^2 CFU/ml
same,# Mice Survived (3 days)/Total mice in group,[8]; No Peptide 6/8,4/4
same,Viable Bacteria in the Spleen,[9],5.79 ± 0.43 × 10^3 CFU/ml
same,"MIC, C. rhod.",[3]; 24 h,16 µg/mL
same,"MIC, E. coli",[3]; 24 h,16 µg/mL
same,"MIC, EHEC",[3]; 24 h,4 µg/mL
same,"MIC, P. aerug.",[3]; 24 h,128 µg/mL
same,"MIC, S. typhim.",[3]; 24 h,16 µg/mL
same,"MIC, S. aureus",[3]; [11],>
same,IL-8,[4],0.284 ng/mL
PAM3,"IL-1β, Ave pg/ml","[10]; 4 hr, PAM3 −SEQ ID NO: 1",34 pg/mL
same,"IL-6, Ave pg/ml","[10]; 4 hr, PAM3 −SEQ ID NO: 1",435 pg/mL
same,"IL-8, Ave pg/ml","[10]; 4 hr, PAM3 −SEQ ID NO: 1",738 pg/mL
same,"TNF-α, Ave pg/ml","[10]; 4 hr, PAM3 −SEQ ID NO: 1",830 pg/mL
same,"IL-1β, Ave pg/ml","[10]; 24 hr, PAM3 −SEQ ID NO: 1",512 pg/mL
same,"IL-6, Ave pg/ml","[10]; 24 hr, PAM3 −SEQ ID NO: 1",7734 pg/mL
same,"IL-8, Ave pg/ml","[10]; 24 hr, PAM3 −SEQ ID NO: 1",7620 pg/mL
same,"TNF-α, Ave pg/ml","[10]; 24 hr, PAM3 −SEQ ID NO: 1",2334 pg/mL
IL-1β,"IL-6, Ave pg/ml","[10]; 4 hr, IL-1β −SEQ ID NO: 1",39 pg/mL
same,"IL-8, Ave pg/ml","[10]; 4 hr, IL-1β −SEQ ID NO: 1",124 pg/mL
same,"TNF-α, Ave pg/ml","[10]; 4 hr, IL-1β −SEQ ID NO: 1",97 pg/mL
same,"IL-6, Ave pg/ml","[10]; 24 hr, IL-1β −SEQ ID NO: 1",645 pg/mL
same,"IL-8, Ave pg/ml","[10]; 24 hr, IL-1β −SEQ ID NO: 1",3034 pg/mL
same,"TNF-α, Ave pg/ml","[10]; 24 hr, IL-1β −SEQ ID NO: 1",20 pg/mL
